Test results from ChEMBL document CHEMBL1148790, “Synthesis, molecular modeling studies, and preliminary pharmacological characterization of all possible 2-(2'-sulfonocyclopropyl)glycine stereoisomers as conformationally constrained L-homocysteic acid analogs” (J Med Chem, 2007).

Assays:
[1] = biological target: Metabotropic glutamate receptor 1 (Homo sapiens, UniProt Q13255); assay: Displacement of [3H]quisqualate from mGluR1 receptor expressed in BHK cells; type: cell-based
Glutamate NMDA receptor = assay: Displacement of [3H]CGP-39653 from rat NMDA receptor in rat brain membranes
[2] = biological target: Metabotropic glutamate receptor 5 (Homo sapiens, UniProt P41594); assay: Binding affinity to mGluR5 receptor expressed in BHK cells; type: cell-based
Chain of Metabotropic glutamate receptor 5 (P41594 whole entry): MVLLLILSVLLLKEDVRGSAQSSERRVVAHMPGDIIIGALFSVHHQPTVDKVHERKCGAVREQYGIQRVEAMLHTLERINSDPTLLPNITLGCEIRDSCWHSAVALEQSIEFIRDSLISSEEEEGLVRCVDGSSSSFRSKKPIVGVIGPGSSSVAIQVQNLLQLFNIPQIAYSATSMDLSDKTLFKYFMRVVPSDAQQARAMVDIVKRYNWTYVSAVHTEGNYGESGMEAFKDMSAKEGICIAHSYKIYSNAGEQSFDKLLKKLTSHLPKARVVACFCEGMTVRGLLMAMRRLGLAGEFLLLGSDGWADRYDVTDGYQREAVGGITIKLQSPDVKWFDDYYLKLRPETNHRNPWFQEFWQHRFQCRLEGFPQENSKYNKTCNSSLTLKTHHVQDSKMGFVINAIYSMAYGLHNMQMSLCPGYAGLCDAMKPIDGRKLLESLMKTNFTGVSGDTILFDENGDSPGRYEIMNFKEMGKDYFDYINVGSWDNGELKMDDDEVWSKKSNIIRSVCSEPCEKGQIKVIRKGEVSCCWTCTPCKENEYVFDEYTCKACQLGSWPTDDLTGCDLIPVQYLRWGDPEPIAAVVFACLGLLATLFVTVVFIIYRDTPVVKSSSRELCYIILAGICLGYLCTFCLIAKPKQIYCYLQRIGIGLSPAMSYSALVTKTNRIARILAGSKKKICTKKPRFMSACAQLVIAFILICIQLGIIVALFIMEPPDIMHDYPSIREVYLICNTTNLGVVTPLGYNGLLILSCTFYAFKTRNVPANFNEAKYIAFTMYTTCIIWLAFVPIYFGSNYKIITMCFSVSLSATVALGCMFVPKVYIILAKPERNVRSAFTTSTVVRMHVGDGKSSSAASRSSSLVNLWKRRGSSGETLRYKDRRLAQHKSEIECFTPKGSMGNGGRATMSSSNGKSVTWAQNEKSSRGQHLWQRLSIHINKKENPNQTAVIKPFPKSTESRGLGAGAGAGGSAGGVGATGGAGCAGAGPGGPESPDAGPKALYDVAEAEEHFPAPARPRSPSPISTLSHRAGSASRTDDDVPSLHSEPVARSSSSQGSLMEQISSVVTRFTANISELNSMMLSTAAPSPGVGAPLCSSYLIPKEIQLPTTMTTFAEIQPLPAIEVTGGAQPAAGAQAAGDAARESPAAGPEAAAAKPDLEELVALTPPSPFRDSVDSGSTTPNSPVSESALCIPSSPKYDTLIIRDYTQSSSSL

[3] = Displacement of [3H]AMPA from rat AMPA receptor in rat brain membranes
[4] = biological target: Metabotropic glutamate receptor 2 (Homo sapiens, UniProt Q14416); assay: Displacement of [3H]LY341495 from mGluR2 receptor expressed in BHK cells; type: cell-based
Chain of Metabotropic glutamate receptor 2 (Q14416 whole entry): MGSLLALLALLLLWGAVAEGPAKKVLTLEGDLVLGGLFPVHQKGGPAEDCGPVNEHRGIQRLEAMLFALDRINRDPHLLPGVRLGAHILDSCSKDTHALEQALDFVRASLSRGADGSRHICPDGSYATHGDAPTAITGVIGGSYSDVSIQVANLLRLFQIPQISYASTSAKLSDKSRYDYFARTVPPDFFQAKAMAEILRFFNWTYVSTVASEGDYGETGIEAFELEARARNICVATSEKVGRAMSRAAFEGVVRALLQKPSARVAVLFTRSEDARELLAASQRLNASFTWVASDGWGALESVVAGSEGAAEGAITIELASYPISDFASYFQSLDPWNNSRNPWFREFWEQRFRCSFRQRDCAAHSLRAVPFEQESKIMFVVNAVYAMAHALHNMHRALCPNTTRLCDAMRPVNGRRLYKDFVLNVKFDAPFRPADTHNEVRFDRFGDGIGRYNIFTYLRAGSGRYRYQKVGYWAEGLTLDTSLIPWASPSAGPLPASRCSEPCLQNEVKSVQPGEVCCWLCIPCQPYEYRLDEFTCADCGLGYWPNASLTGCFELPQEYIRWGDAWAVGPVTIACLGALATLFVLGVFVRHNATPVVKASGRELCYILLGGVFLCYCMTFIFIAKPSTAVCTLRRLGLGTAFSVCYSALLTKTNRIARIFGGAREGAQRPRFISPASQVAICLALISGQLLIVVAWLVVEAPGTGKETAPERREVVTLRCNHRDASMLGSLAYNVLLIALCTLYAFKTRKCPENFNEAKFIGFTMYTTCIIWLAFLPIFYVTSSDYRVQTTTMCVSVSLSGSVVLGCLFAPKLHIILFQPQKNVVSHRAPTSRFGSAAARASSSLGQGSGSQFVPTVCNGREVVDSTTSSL

[5] = Displacement of [3H]kainic acid from rat KA receptor in rat brain membranes
[6] = biological target: Metabotropic glutamate receptor 4 (Homo sapiens, UniProt Q14833); assay: Displacement of [3H]LAP4 from mGluR4 receptor expressed in BHK cells; type: cell-based
Chain of Metabotropic glutamate receptor 4 (Q14833 whole entry): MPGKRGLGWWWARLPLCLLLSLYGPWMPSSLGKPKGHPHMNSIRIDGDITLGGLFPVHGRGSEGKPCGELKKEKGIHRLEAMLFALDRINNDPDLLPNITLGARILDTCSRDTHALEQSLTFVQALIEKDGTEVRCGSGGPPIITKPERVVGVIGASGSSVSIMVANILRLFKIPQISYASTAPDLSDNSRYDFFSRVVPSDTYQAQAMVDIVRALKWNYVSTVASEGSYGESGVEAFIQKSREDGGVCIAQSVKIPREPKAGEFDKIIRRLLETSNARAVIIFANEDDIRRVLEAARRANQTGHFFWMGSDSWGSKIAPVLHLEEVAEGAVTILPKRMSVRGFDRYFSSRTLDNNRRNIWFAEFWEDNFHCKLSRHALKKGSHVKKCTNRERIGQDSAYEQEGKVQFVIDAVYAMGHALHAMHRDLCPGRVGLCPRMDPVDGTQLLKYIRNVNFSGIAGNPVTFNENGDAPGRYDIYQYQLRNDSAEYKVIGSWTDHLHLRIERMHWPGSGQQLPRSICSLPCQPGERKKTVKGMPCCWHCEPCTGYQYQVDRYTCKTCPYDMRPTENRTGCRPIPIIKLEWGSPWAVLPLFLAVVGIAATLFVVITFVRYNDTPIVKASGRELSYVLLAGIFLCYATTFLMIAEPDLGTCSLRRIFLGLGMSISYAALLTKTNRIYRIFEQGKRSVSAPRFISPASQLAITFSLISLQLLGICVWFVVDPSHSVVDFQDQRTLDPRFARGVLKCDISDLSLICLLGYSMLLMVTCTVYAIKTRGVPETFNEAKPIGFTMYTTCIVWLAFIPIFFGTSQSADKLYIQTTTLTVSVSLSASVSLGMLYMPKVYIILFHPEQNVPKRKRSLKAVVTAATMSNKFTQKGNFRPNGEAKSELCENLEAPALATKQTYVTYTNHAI

Chain of Metabotropic glutamate receptor 1 (Q13255 whole entry): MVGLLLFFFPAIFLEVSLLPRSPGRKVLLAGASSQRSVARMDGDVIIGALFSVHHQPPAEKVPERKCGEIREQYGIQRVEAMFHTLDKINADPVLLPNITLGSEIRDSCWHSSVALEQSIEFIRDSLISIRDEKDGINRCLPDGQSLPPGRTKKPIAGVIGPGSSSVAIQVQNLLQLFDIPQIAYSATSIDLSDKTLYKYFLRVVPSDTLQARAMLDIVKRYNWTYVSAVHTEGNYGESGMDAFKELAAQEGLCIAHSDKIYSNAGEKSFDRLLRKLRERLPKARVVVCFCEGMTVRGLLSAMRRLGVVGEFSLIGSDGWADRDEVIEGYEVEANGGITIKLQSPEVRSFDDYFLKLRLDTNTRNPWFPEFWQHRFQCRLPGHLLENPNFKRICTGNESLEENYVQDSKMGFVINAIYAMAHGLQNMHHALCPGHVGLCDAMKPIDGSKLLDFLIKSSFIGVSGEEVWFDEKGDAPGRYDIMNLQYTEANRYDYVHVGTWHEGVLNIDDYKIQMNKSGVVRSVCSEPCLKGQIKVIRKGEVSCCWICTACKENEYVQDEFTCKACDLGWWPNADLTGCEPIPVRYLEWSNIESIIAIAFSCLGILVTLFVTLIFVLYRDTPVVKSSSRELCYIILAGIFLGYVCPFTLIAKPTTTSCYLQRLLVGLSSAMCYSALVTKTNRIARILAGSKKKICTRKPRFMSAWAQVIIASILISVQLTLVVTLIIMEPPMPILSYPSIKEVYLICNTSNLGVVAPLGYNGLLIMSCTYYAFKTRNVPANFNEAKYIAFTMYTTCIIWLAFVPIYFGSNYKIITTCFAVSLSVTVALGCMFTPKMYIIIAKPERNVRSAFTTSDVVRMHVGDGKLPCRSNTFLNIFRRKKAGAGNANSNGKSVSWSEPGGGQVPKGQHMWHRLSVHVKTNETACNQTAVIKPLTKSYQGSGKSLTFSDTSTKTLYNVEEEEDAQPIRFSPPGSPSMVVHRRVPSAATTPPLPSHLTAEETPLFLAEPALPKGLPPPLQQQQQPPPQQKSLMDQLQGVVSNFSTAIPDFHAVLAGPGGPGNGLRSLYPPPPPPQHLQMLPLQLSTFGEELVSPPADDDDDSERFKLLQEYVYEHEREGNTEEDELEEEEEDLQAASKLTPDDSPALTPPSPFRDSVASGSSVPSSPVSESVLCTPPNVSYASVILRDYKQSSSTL

| Compound | Ki [1] [µM] | Ki (Glutamate NMDA receptor) [µM] | Ki [2] [µM] | Ki [3] [µM] | Ki [4] [µM] | Ki [5] [µM] | Ki [6] [µM] |
| --- | --- | --- | --- | --- | --- | --- | --- |
| N[C@@H](C(=O)O)[C@@H]1C[C@H]1S(=O)(=O)O | 254 | 150 | 67 | 72 | > 300 | 71 | > 300 |
| N[C@@H](C(=O)O)[C@@H]1C[C@@H]1S(=O)(=O)O | > 300 | > 300 | > 300 | > 300 | > 300 | 35 | > 300 |
| N[C@@H](C(=O)O)[C@H]1C[C@H]1S(=O)(=O)O | > 300 | 61 | 55 | 72 | > 300 | 64 | > 300 |
| N[C@@H](CCS(=O)(=O)O)C(=O)O | 87 | 2.7 | 54 | 2.4 | > 300 | 9.9 | 53 |
| N[C@H](C(=O)O)[C@H]1C[C@@H]1S(=O)(=O)O | 34 | > 300 | 49 | > 300 | 235 | > 300 | > 300 |
| N[C@H](C(=O)O)[C@@H]1C[C@@H]1C(=O)O | – | 0.009 | – | – | – | – | – |
| N[C@H](C(=O)O)[C@@H]1C[C@H]1S(=O)(=O)O | 77 | > 300 | 81 | > 300 | > 300 | 34 | > 300 |
| N[C@@H](C(=O)O)[C@H]1C[C@@H]1S(=O)(=O)O | > 300 | 22 | > 300 | 96 | > 300 | 34 | > 300 |
| N[C@H](C(=O)O)[C@H]1C[C@H]1S(=O)(=O)O | > 300 | > 300 | > 300 | > 300 | > 300 | > 300 | > 300 |
| N[C@H](C(=O)O)[C@@H]1C[C@@H]1S(=O)(=O)O | > 300 | 19 | > 300 | 0.1 | > 300 | 3.3 | > 300 |
